From article PMC7894426, “Influence of verapamil on the pharmacokinetics of rotundic acid in rats and its potential mechanism” (Pharmaceutical Biology, 2021)
Where two headings read alike, the source gives them in different places.

Experiment: In vivo pharmacokinetic study of oral rotundic acid with or without verapamil pre-treatment
Design: species or system Sprague–Dawley rats
Details: rats, RA 10 mg/kg oral; for AUC(0-inf) / CL/F / Cmax / Vd/F / half-life / AUC(0-t) / Tmax: male, Sprague-Dawley, rat, plasma, po, 10 mg/kg; for AUC(0-t): read-out: AUC0–24
Procedure: Male Sprague–Dawley rats (180–220 g) were purchased from SiPeiFu (Beijing) Biotechnology Co., Ltd. (Beijing, China). Rats were housed in a breeding room at stable temperature (22 ± 3 °C), humidity (55 ± 10%), and under non-pathogenic conditions. All animals were placed under the above conditions and acclimatized to the facilities for one week, then fasted for 12 h with water ad libitum before the experiments. The protocols involving experimental animals were carried out by the guidelines of the Animal Ethical Committee of Tianjin Institute of Pharmaceutical Research (Tianjin, China).
To evaluate the influence of verapamil on the in vivo pharmacokinetics of RA, the male Sprague–Dawley rats were randomly divided into three groups (n = 6), including a control group and two pre-treatment groups. The pre-treatment groups received verapamil orally by gavage at a dose of 25 and 50 mg/kg (dissolved in 5% gum arabicin at a concentration of 5 and 10 mg/mL, respectively) separately for 15 min before the administration of RA at a dose of 10 mg/kg (dissolved in 5% gum arabicin at a concentration of 2 mg/mL). The dose of verapamil selected was equated to the human maximum recommended daily dose of 240–480 mg for a 60 kg person following allometric conversion (US Food and Drug Administration [2005]; Cao et al. [2007]). The control group received equal amounts of the vehicle (5% gum arabicin) before the oral administration of RA. Whole blood samples (200 µL) were collected from the orbital venous plexus at 0.0833, 0.25, 0.5, 1, 1.5, 2, 3, 4, 6, 8, 10 and 24 h after oral administration. All samples were transferred into heparinized tubes and then centrifuged for 5 min at 12,000 rpm and 4 °C immediately. The supernatants of separated plasma samples were harvested and stored at −20 °C until LC-MS/MS analysis.
RA was extracted from the sample using a simple protein precipitation method with a 3-fold volume of an organic solvent consisting of methanol-acetonitrile (1:2, v/v). Briefly, a 50 µL aliquot of plasma sample was thawed at room temperature and was then precipitated by 50 µL of methanol and 100 µL of acetonitrile containing IS (10 ng/mL). The sample was mixed uniformly for 1 min, and then centrifuged for 10 min at 12,000 rpm and 4 °C. Subsequently, 10 µL supernatants were injected into the LC-MS/MS system for analysis.
The separation and mass spectrometric analysis of the RA was achieved on a Waters ACQUITY^TM Ultra Performance LC system coupled with a Tandem Quadrupole (TQ) Detector equipped with an electrospray ionization (ESI) source. Chromatographic separation was performed at 40 °C with an ACQUITYUPLC BEH C8 column (1.7 µm, 2.1 × 50 mm, Waters Corp., USA). The mobile phase consisted of methanol-acetonitrile (50:50, v/v, mobile phase A), and 5 mM ammonium formate-methanol (90:10, v/v, mobile phase B). While the gradient elution procedure was employed for the separation of analytes at a flow rate of 0.3 mL/min. The optimized gradient elution program was as follows: 0 min 60% B, 3 min 10% B, 4 min 10% B, and 5 min 60% B. The injection volume was 10 µL at an autosampler temperature of 6 °C. The analytical run time for each sample was 5.0 min. The HPLC elution was injected into waste for the first 1.2 min, into the MS detector for the next 1 min, and back into waste for the remaining run time. RA and IS were monitored with the mass spectrometer by negative ESI source mode. The ionization source parameters were set as follows: 2.5 kV, 30 V, 120 °C, 350 °C, 50 L/h, and 650 L/h for capillary voltage, cone voltage, source temperature, desolvation temperature, cone gas, and desolvation gas, respectively. The optimal collision energy was operated at 30 V for RA and 20 V for IS. Argon was used as the collision gas. Samples were analyzed by multiple reaction monitoring (MRM) of the transitions of m/z 487.3 → 469.3 for RA and m/z 256.0 → 227.0 for IS, respectively. The dwell time was set at 0.2 s per transition. Data were acquired by MassLynx 4.1 software. […]

[1] = pre-treatment of verapamil 25 mg/kg
[2] = pre-treatment of verapamil 50 mg/kg

AUC(0-inf) (control (vehicle)): 432 ± 64.2 ng·h/mL
CL/F (control (vehicle)): 393 mL/min/kg
Cmax (control (vehicle)): 108 ± 10.5 ng/mL
Vd/F (control (vehicle)): 64.6 ± 22.6 L/kg
half-life (control (vehicle)): ~2 h
AUC(0-t) (control (vehicle)): 405 ± 68.2 ng·h/mL
Tmax (control (vehicle), read-out: Tmax): 0.292 ± 0.228 h
AUC(0-inf) [1]: 539 ± 53.6 ng·h/mL
CL/F [1]: 312 mL/min/kg
Cmax [1]: 117 ± 14.9 ng/mL
Vd/F [1]: 66.7 ± 21.1 L/kg
half-life [1]: 2.44 ± 0.572 h
AUC(0-t) [1]: 496 ± 63 ng·h/mL
Tmax (pre-treatment of verapamil 25 mg/kg, read-out: Tmax): 0.625 ± 0.306 h
AUC(0-inf) [2]: 836 ± 116 ng·h/mL
CL/F [2]: 203 mL/min/kg
Cmax [2]: 219 ± 36.8 ng/mL
Vd/F [2]: 41.3 ± 12.3 L/kg
half-life [2]: 2.31 ± 0.404 h
AUC(0-t) [2]: 782 ± 115 ng·h/mL
Tmax (pre-treatment of verapamil 50 mg/kg, read-out: Tmax): 1.17 ± 0.516 h
Tmax (without verapamil, read-out: time to peak plasma concentration (converted)): ~0.25 h
t1/2 (control (vehicle)): 1.85 ± 0.390 h
Structure (SMILES): C[C@@H]1CC[C@]2(C(=O)O)CC[C@]3(C)C(=CC[C@@H]4[C@@]5(C)CC[C@H](O)[C@@](C)(CO)[C@@H]5CC[C@]43C)[C@@H]2[C@]1(C)O [RA, Rotundic acid]
